Where a name gives a salt, the structure may show the parent alone. Read-outs that look alike come from different tables or passages of the source.
What was measured:
[1] = Effect on energy expenditure of mice; assay type: in vivo, Female CFLP mice; conditions: Mus musculus
Description: Female CFLP mice, each weighing approximately 24 g were given food and water ad lib before and during the experiment. The compounds were dissolved in water by addition of one mole of hydrochloric acid per mole of compound and these solutions were administered orally to each of 12 mice. A further 12 mice were dosed orally with water. The mice were placed in boxes through which air was drawn and the oxygen content of the air leaving the boxes was measured. The energy expenditure of the mice was calculated for 21 hours after dosing from the volume of air leaving the boxes and its oxygen content, following the principles described by J. B. de V. Weir, J. Physiol. (London), 109, 1-9 (1949).

blood glucose = assay: Hypoglycaemic activity: reduction in area under blood glucose curve after glucose load; assay type: in vivo, Female CFLP mice; conditions: Mus musculus, read-out: % Reduction in area under Blood Glucose Curve
Description: Female CFLP mice, weighing approximately 25 g, were fasted for 24 hours prior to the study. The compounds under study were administered orally as an aqueous solution to each of 6 mice. 30 minutes later a blood sample (10 μl) was obtained from the tail for the analysis of blood glucose. Immediately after taking this blood sample, glucose (1 g/Kg body weight) was administered subcutaneously to each mouse. 6 mice were given water as a control. Blood samples were then obtained from each mouse at 30 minute intervals for 120 minutes.
Compounds that produced a significant (P<0.05) reduction of blood glucose, compared with control mice given water, at any time interval, were considered active. The area under the blood glucose curve over the 2 hour period after the administration of the glucose was calculated for each compound and compared with the value for control animals.

[2] = po, 21 h, read-out: Mean Energy Expenditure (0-21 h)
[3] = po, 3 h, read-out: Mean Energy Expenditure (0-3 h)
[4] = 2.5 μmol/Kg oral, 2 h after glucose 1 g/Kg s.c., vs control
[5] = 22.1 mg/kg po, 0-3 h, read-out: Mean Energy Expenditure (0-3 h)
[6] = 22.1 mg/kg po, 0-21 h, read-out: Mean Energy Expenditure (0-21 h)
[7] = 12.5 μmol/Kg oral, 2 h after glucose 1 g/Kg s.c., vs control

## COC(=O)COc1ccc(C[C@@H](C)NC[C@H](OC)c2cccc(Cl)c2)cc1 (relative stereo) [Example 60, N-[2-(4-Carbomethoxymethoxyphenyl)-1-methylethyl]-2-methoxy-2-(3-chlorophenyl)ethanamine hydrochloride(RR,SS)diasteroisomer]
[1]; [2]
  response vs control in vivo at 8.6 mg/kg: 115%
[1]; 8.6 mg/kg po, 0-3 h, read-out: Mean Energy Expenditure (0-3 h)
  response vs control in vivo at 8.6 mg/kg: 131%
Blood glucose; 0.5 μmol/Kg oral, 2 h after glucose 1 g/Kg s.c., vs control
  inhibition in vivo at 0.5 µmol/kg: 30.5%

## COC(=O)COc1ccc(CC(C)NCC(OC)c2cccc(C(F)(F)F)c2)cc1 (stereo not drawn) [Example 2, N-[2-(4-Carbomethoxymethoxyphenyl)-1-methylethyl]-2-methoxy-2-(3-trifluoromethylphenyl)ethanamine hydrochloride]
[1]; [3]
  response vs control in vivo at 23.1 mg/kg: 124%
[1]; [2]
  response vs control in vivo at 23.1 mg/kg: 113%
Blood glucose; po, 2 h
  inhibition in vivo at 12.5 µmol/kg: 47%

## CCOC(CNC(C)Cc1ccc(OCC(=O)OC)cc1)c1cccc(Cl)c1 (stereo not drawn) [Example 3, N-[2-(4-Carbomethoxymethoxyphenyl)-1-methylethyl]-2-ethoxy-2-(3-chlorophenyl)ethanamine hydrochloride]
[1]; [3]
  response vs control in vivo at 22.1 mg/kg: 135%
[1]; [2]
  response vs control in vivo at 22.1 mg/kg: 116%
Blood glucose; po, 2 h
  inhibition in vivo at 12.5 µmol/kg: 49%

## CNC(=O)COc1ccc(CC(C)NCC(OC)c2cccc(Cl)c2)cc1 (stereo not drawn) [Example 4, N-[2-(4-Methylaminocarbonylmethoxyphenyl)-1-methylethyl]-2-methoxy-2-(3-chlorophenyl)ethanamine hydrochloride]
[1]; [3]
  response vs control in vivo at 8.5 mg/kg: 152%
[1]; [2]
  response vs control in vivo at 8.5 mg/kg: 120%
Blood glucose; po, 2 h
  inhibition in vivo at 1 µmol/kg: 54%

## COC(=O)c1ccc(CC(C)NCC(OC)c2cccc(Cl)c2)cc1 (stereo not drawn) [Example 5, N-[2-(4-Carbomethoxyphenyl)-1-methylethyl]-2-methoxy-2-(3-chlorophenyl)ethanamine hydrochloride]
[1]; [3]
  response vs control in vivo at 19.9 mg/kg: 128%
[1]; [2]
  response vs control in vivo at 19.9 mg/kg: 117%
Blood glucose; po, 2 h
  inhibition in vivo at 12.5 µmol/kg: 27%

## COC(=O)COc1cccc(CC(C)NCC(OC)c2cccc(Cl)c2)c1 (stereo not drawn) [Example 8, N-[2-(3-Carbomethoxymethoxyphenyl)-1-methylethyl]-2-methoxy-2-(3-chlorophenyl)ethanamine hydrochloride]
[1]; [3]
  response vs control in vivo at 21.4 mg/kg: 142%
[1]; [2]
  response vs control in vivo at 21.4 mg/kg: 111%
Blood glucose; po, 2 h
  inhibition in vivo at 12.5 µmol/kg: 49%

## CNCCOc1ccc(CC(C)NCC(OC)c2cccc(Cl)c2)cc1 (stereo not drawn) [Example 9, N-[2-(4-Methylaminoethoxy)phenyl)-1-methylethyl]-2-methoxy-2-(3-chlorophenyl)ethanamine dihydrochloride]
[1]; [3]
  response vs control in vivo at 22.4 mg/kg: 168%
[1]; 22.4 mg/kg po, 0-21 h, read-out: Mean Energy Expenditure (0-21 h)
  response vs control in vivo at 22.4 mg/kg: 151%
Blood glucose; [4]
  inhibition in vivo at 2.5 µmol/kg: 31%

## COC(=O)COc1ccc(CC(C)NCC(OC)c2ccccc2)cc1 (stereo not drawn) [Example 10, N-[2-(4-Carbomethoxymethoxyphenyl)-1-methylethyl]-2-methoxy-2-phenylethanamine hydrochloride monohydrate]
[1]; [3]
  response vs control in vivo at 20.6 mg/kg: 135%
[1]; [2]
  response vs control in vivo at 20.6 mg/kg: 114%
Blood glucose; po, 2 h
  inhibition in vivo at 1 µmol/kg: 24%

## CNC(=O)COc1ccc(CC(C)NCC(OC)c2ccccc2)cc1 (stereo not drawn) [Example 11, N-[2-(4-Methylaminocarbonylmethoxyphenyl)-1-methylethyl]-2-methoxy-2-phenylethanamine hydrochloride]
[1]; [3]
  response vs control in vivo at 19.6 mg/kg: 139%
[1]; [2]
  response vs control in vivo at 19.6 mg/kg: 118%
Blood glucose; po, 2 h
  inhibition in vivo at 1 µmol/kg: 42%

## COC(=O)COc1ccc(CC(C)NCC(OC)c2cccc(Br)c2)cc1 (stereo not drawn) [Example 12, N-[2-(4-Carbomethoxymethoxyphenyl)-1-methylethyl]-2-methoxy-2-(3-bromophenyl)ethanamine hydrochloride]
[1]; [3]
  response vs control in vivo at 23.6 mg/kg: 130%
[1]; [2]
  response vs control in vivo at 23.6 mg/kg: 123%
Blood glucose; po, 2 h
  inhibition in vivo at 1 µmol/kg: 51%

## CNCCOc1ccc(CC(C)NCC(OC)c2ccccc2)cc1 (stereo not drawn) [Example 13, N-[2-(4-(2-Methylaminoethoxy)phenyl)-1-methylethyl]-2-methoxy-2-phenylethanamine dihydrochloride]
[1]; [3]
  response vs control in vivo at 20.8 mg/kg: 145%
[1]; [2]
  response vs control in vivo at 20.8 mg/kg: 118%
Blood glucose; po, 2 h
  inhibition in vivo at 2.5 µmol/kg: 21%

## COC(=O)COc1ccc(CCC(C)NCC(OC)c2cccc(Cl)c2)cc1 (stereo not drawn) [Example 14, N-[3-(4-Carbomethoxymethoxyphenyl)-1-methylpropyl)-2-methoxy-2-(3-chlorophenyl)ethanamine hydrochloride]
[1]; [5]
  response vs control in vivo at 22.1 mg/kg: 135%
[1]; [6]
  response vs control in vivo at 22.1 mg/kg: 103%

## CNC(=O)COc1ccc(CC(C)NCC(OC)c2cccc(Br)c2)cc1 (stereo not drawn) [Example 15, N-[2-(4-Methylaminocarbonylmethoxyphenyl)-1-methylethyl]-2-methoxy-2-(3-bromophenyl)ethanamine hydrochloride]
[1]; [3]
  response vs control in vivo at 23.6 mg/kg: 137%
[1]; [2]
  response vs control in vivo at 23.6 mg/kg: 125%
Blood glucose; po, 2 h
  inhibition in vivo at 0.5 µmol/kg: 41%

## CCOC(CNC(C)Cc1ccc(OCC(=O)NC)cc1)c1cccc(Cl)c1 (stereo not drawn) [Example 16, N-[2-(4-Methylaminocarbonylmethoxyphenyl)-1-methylethyl]-2-ethoxy-2-(3-chlorophenyl)ethanamine hydrochloride]
[1]; [3]
  response vs control in vivo at 22.1 mg/kg: 140%
[1]; [2]
  response vs control in vivo at 22.1 mg/kg: 126%
Blood glucose; po, 2 h
  inhibition in vivo at 1 µmol/kg: 49%

## CNCCOc1ccc(CC(C)NCC(OC)c2cccc(Br)c2)cc1 (stereo not drawn) [Example 17, N-[2-(4-Methylaminoethoxy)phenyl)-1-methylethyl]-2-methoxy-2-(3-bromophenyl)ethanamine dihydrochloride]
[1]; [3]
  response vs control in vivo at 24.7 mg/kg: 142%
[1]; [2]
  response vs control in vivo at 24.7 mg/kg: 130%
Blood glucose; [4]
  inhibition in vivo at 2.5 µmol/kg: 25%

## CCOC(CNC(C)Cc1ccc(OCCNC)cc1)c1cccc(Cl)c1 (stereo not drawn) [Example 18, N-[2-(4-(2-Methylaminoethoxy)phenyl)-1-methylethyl]-2-ethoxy-2-(3-chlorophenyl)ethanamine dihydrochloride]
[1]; [3]
  response vs control in vivo at 23.2 mg/kg: 115%
[1]; [2]
  response vs control in vivo at 23.2 mg/kg: 123%
Blood glucose; po, 2 h
  inhibition in vivo at 12.5 µmol/kg: 47.5%

## COC(CNC(C)Cc1ccc(OCC(=O)N(C)C)cc1)c1cccc(Cl)c1 (stereo not drawn) [Example 19, N-[2-(4-Dimethylaminocarbonylmethoxyphenyl)-1-methylethyl]-2-methoxy-2-(3-chlorophenyl)ethanamine hydrochloride]
[1]; [3]
  response vs control in vivo at 22.1 mg/kg: 143%
[1]; [2]
  response vs control in vivo at 22.1 mg/kg: 139%
Blood glucose; po, 2 h
  inhibition in vivo at 1 µmol/kg: 56%

## COC(CNC(C)Cc1ccc(OCCO)cc1)c1ccccc1 (stereo not drawn) [Example 21, N-[2-(4-(2-Hydroxyethoxy)phenyl)-1-methylethyl]-2-methoxy-2-phenylethanamine hydrochloride hemihydrate]
[1]; [2]
  response vs control in vivo at 18.8 mg/kg: 120%
[1]; 18.8 mg/kg po, 0-3 h, read-out: Mean Energy Expenditure (0-3 h)
  response vs control in vivo at 18.8 mg/kg: 147%
Blood glucose; 1.0 μmol/Kg oral, 2 h after glucose 1 g/Kg s.c., vs control
  inhibition in vivo at 1 µmol/kg: 48%

## CNC(=O)COc1ccc(CCC(C)NCC(OC)c2cccc(Cl)c2)cc1 (stereo not drawn) [Example 22, N-[3-(4-Methylaminocarbonylmethoxyphenyl)-1-methylpropyl]-2-methoxy-2-(3-chlorophenyl)ethanamine hydrochloride]
[1]; [5]
  response vs control in vivo at 22.1 mg/kg: 126%
[1]; [6]
  response vs control in vivo at 22.1 mg/kg: 107%
Blood glucose; 25 μmol/Kg oral, 2 h after glucose 1 g/Kg s.c., vs control
  inhibition in vivo at 25 µmol/kg: 39%

## COC(=O)c1ccc(CC(C)NCC(OC)c2ccccc2)cc1 (stereo not drawn) [Example 32, N-[2-(4-Carbomethoxyphenyl)-1-methylethyl]-2-methoxy-2-phenylethanamine hydrochloride hemihydrate]
Blood glucose; [7]
  inhibition in vivo at 12.5 µmol/kg: 19%

## COc1ccc(CC(C)NCC(OC)c2cccc(Cl)c2)cc1 (stereo not drawn) [Example 38, N-[2-(4-Methoxyphenyl)-1-methylethyl]-2-methoxy-2-(3-chlorophenyl)ethanamine hydrochloride]
Blood glucose; po, 2 h
  inhibition in vivo at 25 µmol/kg: 38%

## COC(=O)c1ccc(CC(C)NCC(OC)c2cccc(C(F)(F)F)c2)cc1 (stereo not drawn) [Example 45, N-[2-(4-Carbomethoxyphenyl)-1-methylethyl]-2-methoxy-2-(3-trifluoromethylphenyl)ethanamine hydrochloride hemihydrate]
Blood glucose; [7]
  inhibition in vivo at 12.5 µmol/kg: 38%

## CNC(=O)COc1ccc(CC(C)NCC(OC)c2cccc(F)c2F)cc1 (stereo not drawn) [Example 54, N-[2-(4-Methylaminocarbonylmethoxyphenyl)-1-methylethyl]-2-methoxy-2-(2,3-difluorophenyl)ethanamine dihydrochloride]
Blood glucose; po, 2 h
  inhibition in vivo at 25 µmol/kg: 40%

Source: patent publication US4629737A, “Secondary amines and use in pharmaceutical compositions” (Beecham Group p.l.c., priority 1982, dated 1986)
